Source: US4803224A, “Antiviral antibiotic complex” (Bristol-Myers Company, priority 1986, dated 1989)
Entries after “also recorded” stand apart in the source; their conditions may differ. Read-outs that look alike come from different tables or passages of the source.

Key:
Format in all cases: cell-based
[1] = test system: Mycobacterium smegmatis strain M6-3; test: Paper disc-agar diffusion method
Text: (§1) The production of BU-2231 in the fermentation medium may be followed readily during the course of fermentation by the paper disc-agar diffusion method using Bacillus subtilis PCI-219 and Mycobacterium smegmatis strain M6-3 as test organisms. The BU-2231 A and BU-2231 B components of BU-2231 antibiotic complex as well as the co-produced aminoglycoside complex (also referred to as the "nebramycin factors" or "nebramycin components") are believed to be active against B. subtilis but only the BU-2231 A and B comppnents show activity against Mycobacterium smegmatis strain M6-3.

[2] = test system: Bacillus subtilis PCI-219; test: Paper disc-agar diffusion method; conditions: "are believed to be"
Text: as §1

Escherichia coli Juhl = test: 2-fold serial broth dilution, nutrient broth
Vero cell [3] = test: Cytotoxicity against host cells (dye-uptake assay)
Text: (§2) The results are shown in Table 2 together with their cytotoxicity against the host cells.

[4] = test system: Staphylococcus aureus BX-1633-2; test: 2-fold serial broth dilution, nutrient broth
[5] = test system: Staphylococcus aureus Smith; test: 2-fold serial broth dilution, nutrient broth
[6] = test system: Serratia marcescens A20019; test: 2-fold serial broth dilution, nutrient broth
Vero cell [7] = test: Cytotoxicity against host cells (plaque reduction assay)
Text: as §2

[8] = test system: Klebsiella pneumoniae A9977; test: 2-fold serial broth dilution, nutrient broth
[9] = test system: herpes simplex virus type I (HSV-1); test: Dye-uptake assay, HSV-1-Vero cell system; conditions: for Dye-uptake assay, Activity vs HSV-1 (ID50): Vero cell
Experimental: as §2
In order to examine the relationship between peptide chain length and antiviral activity, a partial acid hydrolysis of BU-2231 V was carried out by heating with 6N HCl at 100 deg. C. for one hour. The hydrolyzate was chromatographed on CM-cellulose to yield 8 peptide fragments. Number of D-α,γ-diaminobutyric acid residues in each peptide was determined by the DNP method and antiviral activity against HSV-1 assessed by the dye-uptake assay (Table 4).

Proteus mirabilis A9554 = test: 2-fold serial broth dilution, nutrient broth
[10] = test system: Pseudomonas aeruginosa A9930; test: 2-fold serial broth dilution, nutrient broth
[11] = test system: Haemophilus influenza A2241; test: 2-fold serial broth dilution, nutrient broth
[12] = test system: Enterobacter cloacae A9656; test: 2-fold serial broth dilution, nutrient broth
[13] = test system: Streptococcus faecalis A9612; test: 2-fold serial broth dilution, nutrient broth
[14] = test system: Gram-positive and Gram-negative bacteria; test: In vitro antibacterial activity, 2-fold serial broth dilution, overall
[15] = test system: herpes simplex virus type I (HSV-1); test: Plaque reduction assay, HSV-1-Vero cell system; conditions: for Antiviral activity (in words): HSV-1, relative to the compounds tested; for Plaque reduction assay, Activity vs HSV-1 (ID50): Vero cell

Molecule | Activity against Mycobacterium smegmatis strain M6-3 (in words) [1] | Activity against B. subtilis (in words) [2] | MIC by TDT (Escherichia coli Juhl) [µg/mL] | MIC by TDT [4] [µg/mL] | MIC by TDT [5] [µg/mL] | MIC by TDT [6] [µg/mL] | MIC by TDT [8] [µg/mL] | Dye-uptake assay, Activity vs HSV-1 (ID50) [9] [µg/mL] | MIC by TDT (Proteus mirabilis A9554) [µg/mL] | MIC by TDT [10] [µg/mL] | MIC by TDT [11] [µg/mL] | MIC by TDT [12] [µg/mL] | MIC by TDT [13] [µg/mL] | Antibacterial activity (in words) [14] | Plaque reduction assay, Activity vs HSV-1 (ID50) [15] [µg/mL] | further results
Cc1c(N)nc([C@H](CC(N)=O)NC[C@@H](N)C(N)=O)nc1C(=O)N[C@H](C(=O)N[C@H](C)[C@@H](O)CC(=O)N[C@@H](C(=O)NC(O[C@@H]1O[C@@H](C)[C@@H](N)[C@@H](O)[C@H]1O)C(O)c1nc(-c2nc(C(=O)NCCCNCCCCN)cs2)cs1)[C@@H](C)O)C(O[C@@H]1O[C@@H](CO)[C@H](O)[C@@H](O)[C@@H]1O[C@H]1O[C@H](CO)[C@@H](O)[C@@H](OC(N)=O)[C@@H]1O)c1cnc[nH]1 (stereo partly shown) [BU-2231 B] | show activity | active |  |  |  |  |  |  |  |  |  |  |  |  |  | 
ε-poly-L-lysine |  |  | 6.3 | 6.3 | 6.3 | 25 | 6.3 | 2.7 | 6.3 | 12.5 | 12.5 | 25 | 50 | moderate inhibitory activity; also recorded: comparable | 2.6 | Dye-uptake assay, Cytotoxicity vs Vero cell (TCID50) (Vero cell [3]): > 100 µg/mL; Plaque reduction assay, Cytotoxicity vs Vero cell (TCID50) (Vero cell [7]): 70 µg/mL; Antiviral activity (in words) ([9]; HSV-1): comparably active; Antiviral activity (in words) [15]: slightly less active than BU-2231 V
Cc1c(N)nc([C@H](CC(N)=O)NC[C@H](N)C(N)=O)nc1C(=O)N[C@H](C(=O)N[C@H](C)[C@@H](O)CC(=O)N[C@H](C(=O)NC(O[C@@H]1O[C@@H](C)[C@@H](N)[C@@H](O)[C@H]1O)C(O)c1nc(-c2nc(C(=O)NCCCC(N)CC(=O)NCCCNCCCCN)cs2)cs1)[C@@H](C)O)[C@H](O[C@@H]1O[C@@H](CO)[C@@H](O)[C@H](O)[C@@H]1O[C@H]1O[C@H](CO)[C@@H](O)[C@H](OC(N)=O)[C@@H]1O)c1c[nH]cn1 (stereo partly shown) [BU-2231 A] | show activity | active |  |  |  |  |  |  |  |  |  |  |  |  |  | 
α-poly-L-lysine [α-Poly-L-lysine (MW: 25,000)] |  |  |  |  |  |  |  | > 20 |  |  |  |  |  |  | 1.8 | Antiviral activity (in words) ([15]; listed as higher molecular α-poly-L-lysine): slightly less active than BU-2231 V
NCC[C@@H](N)C(=O)O [D-α,γ-DAB, D-α,γ-diaminobutyric acid] |  |  |  |  |  |  |  |  |  |  |  |  |  |  |  | IC50 ([9]; Human alphaherpesvirus 1, Vero, partial hydrolyzates of BU-2231V, read-out: Anti-HSV-1 activity ID50): > 660 µg/mL
α-poly-L-lysine [α-Poly-L-lysine (MW: 3,500)] |  |  | 12.5 | 25 | 12.5 | > 100 | 12.5 | 100 | 50 | > 100 | 100 | > 100 | > 100 | moderate inhibitory activity | 42 | Antibacterial activity (in words) ([14]; listed as α-poly-L-lysines): little weaker than others; Antiviral activity (in words) ([15]; listed as lower molecular α-poly-L-lysine): least active
